Measured values taken from paper PMC6389896 (Communications Biology, 2019).
Where “and” joins values, the source holds several entries; their conditions need not be identical. Equal values may be shown once. Read-outs that look alike come from different tables or passages of the source.

Columns and labels:
[1] = system: monkey brain capillary endothelial cells; test: In vitro blood-brain barrier (BBB) model (MBT-24H), transport between luminal and abluminal chambers, control or RAGE shRNA knockdown; details: individual wells, listed as OT; for OT in lower (abluminal, brain) chamber: blood-to-brain, 3 h; for OT in luminal chamber: brain-to-blood, n = 3
Experimental: EC, monkey brain capillary endothelial cells; Peri, rat brain pericytes; Astro, rat astrocytes. […] The endothelial cells used in the upper chamber in a were treated with RAGE shRNA (knockdown, KD) or control (C or CNT) vectors to assess the effects of RAGE knockdown. […] Values are mean ± SEM
For the in vitro BBB model (MBT-24H, PharmaCo-Cell Co., Nagasaki, Japan), rat brain pericytes (1.5 × 10^4 cells/cm^2) and rat astrocytes (1.5 × 10^4 cells/cm^2) were seeded on the bottom of the collagen-coated polyester membranes of Transwell inserts (Corning Life Sciences, MA, USA). After 16 h the cells firmly adherent, monkey brain vascular endothelial cells (1.5 × 10^5 cells/cm^2) were then seeded on the upper side of the inserts in 24-well culture plates. The in vitro BBB models were established within 4 days of seeding the cells according to the manufacturer’s instructions. Trans-endothelial electrical resistance (TEER), which primarily reflects the flux of sodium ions through the cell layers in the culture conditions, was measured with an epithelial-volt-ohm metre and an Endohm-6 chamber electrodes (World Precision Instruments, Sarasota, FL, USA). The TEERs of the coated, cell-free filters were subtracted from the measured TEER values of the models and shown as Ω cm^2. The apparent permeability constants (Papp) between luminal and abluminal chambers were calculated from the distribution ratios. Endothelial expression was silenced using RAGE shRNA and the pSilencer 3.0-H1 vector (Ambion, Austin, TX, USA)[41]. […]

[2] = Oxytocin in CSF after transient brain ischaemia (BCCAO) or sham operation; type: in vivo, mouse; details: individual animals, listed as OT
[3] = Microperfusion of the amygdala, oxytocin in microperfusates; type: in vivo, mouse; details: intranasal 20 ng, 0 min = 100, individual animals, listed as OT
Excerpt: For microperfusion probe implantation, the male mice were with a subcutaneous injections of ketamine. The heads of anesthetised mice were fixed in a stereotactic frame (Narishige, Tokyo, Japan) and a 1 mm hole was drilled in the skull. The intact dura intact was then punctured to create defined opening of the meninges. Using the stereotactic frame, a healing dummy was slowly inserted into the three brain positions. The probe was fixed to the skull by using two anchor screws and biocompatible dental cement. All surgical procedures were completed within 30 min. A healing dummy was used to provide mechanical stability during the implantation and the healing period of 2 weeks. The microperfusion probe (a 4-mm length of the coaxial tube, 2.5 mm in diameter) consisting of a 20 G fluorinated ethylene propylene guide cannula was replaced before sampling with an inflow/outflow tubing on the day of the experiments. This tubing was connected to two glass Hamilton microsyringes placed in syringe pumps (Eicom, Osaka, Japan). Microperfusate was pumped into the probe at a flow rate of 2 µl/min, and the samples were withdrawn at the same flow rate. Sampling was conducted for 2 h. Both microprobes were perfused without sampling for 60 min before the first 30-min microperfusates from the amygdala, PVN, and prefrontal cortex were collected. The microperfusates were mixed under sterile conditions and consisted of 154 mM NaCl, 2.2 mM CaCl2, 5.6 mM KCl, 2.3 mM NaHCO3, and 0.15% BSA (pH 7.4)[80]. Beginning immediately after the nasal application, 4 additional microperfusates were taken at 30-min intervals. After the termination of the experiments, the brains were removed and snap-frozen to obtain 40-μm cryo-cut stained brain slices later for the histological verification of the perfusion site.

[4] = Plasma oxytocin after subcutaneous injection, EIA; type: in vivo, mouse; details: WT and Ager-/- male mice
Experimental: CSF was collected according to the protocol for sampling CSF from mice without detectable plasma contamination[77],[78]. Under ketamine anaesthesia (100 mg/kg intraperitoneally), the occipital skull was exposed, and the dura mater of the cisterna magna appeared as a glistening and clear reverse triangle through which the medulla oblongata, a major blood vessel (arteria dorsalis spinalis), and CSF space were visible. A capillary tube was inserted into the cisterna magna through the dura mater, blood-free CSF samples were collected with a 32G needle and immediately frozen with dry ice prior to storage at −80 °C. After CSF collections, blood samples were obtained by cardiac puncture from the mice under continuous ketamine anaesthesia.
(§1) The CSF samples (5 μl) were thawed and diluted 1:20 in assay buffer. CSF samples were assayed without protein extraction due to the low protein concentration in the CSF. […] The inter-assay and intra-assay coefficients of variation were less than 15%.
Supplementary Figure 5. Transportation of peripherally administrated oxytocin (OT) or PBS into […]
Blood was recovered from the cardiac ventricles of the wild type (WT, RAGE+/+) and Ager-/- (RAGE-/-) male mice (n = 3–16). Oxytocin was measured in the extracted samples. […]
concentrations were measured with enzyme immunosorbent assay (EIA) or LC-MS/MS. […]

[5] = Oxytocin in CSF of the third ventricle after subcutaneous injection; type: in vivo, mouse; details: 90 min after sc 30 ng, 0 min = 100, individual animals, listed as OT
Experimental: In separate experiments we cannulated the third ventricles of WT and Ager^−/− mice and withdrew CSF for oxytocin measurements.
as §1

[6] = design: method as in earlier work; details: i.n. application of 50 μg oxytocin in female pigs; ref 18 (Rault et al.); cited from earlier work
[7] = cited from earlier work

With `CC[C@H](C)[C@@H]1NC(=O)[C@H](Cc2ccc(O)cc2)NC(=O)[C@@H](N)CSSC[C@@H](C(=O)N2CCC[C@H]2C(=O)N[C@@H](CC(C)C)C(=O)NCC(N)=O)NC(=O)[C@H](CC(N)=O)NC(=O)[C@H](CCC(N)=O)NC1=O` [oxytocin, Oxytocin] the “OT in lower (abluminal, brain) chamber” value ([1]; 1 ng/ml added to luminal chamber, control vector (C)) was 10 pg/mL and 13 pg/mL and 13.5 pg/mL and 11.5 pg/mL and 22.2 pg/mL, the “OT in lower (abluminal, brain) chamber” value ([1]; 1 ng/ml luminal, RAGE shRNA knockdown (KD)) was 5 pg/mL and 4.2 pg/mL and 2 pg/mL and 8 pg/mL and the “OT in lower (abluminal, brain) chamber” value ([1]; 10 ng/ml luminal, RAGE KD) was 8 pg/mL and 8.5 pg/mL and 9 pg/mL and 5 pg/mL. For the same molecule, the “OT in lower (abluminal, brain) chamber” value ([1]; 10 ng/ml luminal, control vector (C)) was 21 pg/mL and 28 pg/mL and 15.5 pg/mL and 24 pg/mL and 27 pg/mL, the “OT in luminal chamber” value ([1]; 1 ng/ml abluminal, RAGE KD) was 0.32 pg/mL and 0.34 pg/mL and 0.36 pg/mL and the “OT in luminal chamber” value ([1]; 1 ng/ml added to abluminal chamber, control (C)) was 0.84 pg/mL and 1.12 pg/mL and 0.62 pg/mL. For the same molecule, the “OT in luminal chamber” value ([1]; 10 ng/ml abluminal, RAGE KD) was 2 pg/mL and 1.68 pg/mL and 0.8 pg/mL, the “OT in luminal chamber” value ([1]; 10 ng/ml abluminal, control (C)) was 4 pg/mL and 5.2 pg/mL and 5.4 pg/mL and the “apparent permeability constant (Papp)” value ([1]; head 1 ng/ml, RAGE KD, calculated from distribution ratios) was 1.263 x10^-6 and 1.061 x10^-6 and 0.505 x10^-6 and 2.02 x10^-6. The “apparent permeability constant (Papp)” value ([1]; head 1 ng/ml, control (C), calculated from distribution ratios across chambers) was 2.525 x10^-6 and 3.283 x10^-6 and 3.409 x10^-6 and 2.904 x10^-6, the “apparent permeability constant (Papp)” value ([1]; head 10 ng/ml, RAGE KD, calculated from distribution ratios) was 0.076 x10^-6 and 0.098 x10^-6 and the “CSF OT” value ([2]; Ager-/- BCCAO male mice) was 121.746% and 129.498% and 127.909% and 71.8544% and 61.8033% and 79.0857% and 110.296% and 99.9236% and 126.34%. For the same molecule, the “CSF OT” value ([2]; Ager-/- Sham male mice) was 71.8544% and 61.8033% and 67.0976% and 118.777% and 117.319% and 98.6976%, the “CSF OT” value ([2]; WT BCCAO male mice) was 191.756% and 287.616% and 179.547% and 244.561% and 258.145% and the “CSF OT” value ([2]; WT Sham male mice, cisterna magna, after exogenous oxytocin) was 155.233% and 188.051% and 122.984% and 133.451%. The “OT % in microperfusates of the amygdala” value ([3]; Ager-/- mice, 30 min) was 116% and 89% and 169% and 98% and 65% and 54% and 55% and 105% and 67% and 87% and 79%, the “OT % in microperfusates of the amygdala” value ([3]; Ager-/- mice, 60 min) was 66% and 55% and 85% and 123% and 83% and 92% and 78% and 84% and 76% and 112% and 77% and 93% and 79% and the “OT % in microperfusates of the amygdala” value ([3]; Ager-/- mice, 90 min) was 137% and 158% and 73% and 162% and 90% and 65% and 76% and 99% and 129% and 131% and 83% and 110% and 163%. The “OT % in microperfusates of the amygdala” value ([3]; WT mice, 30 min) was 211% and 198% and 89% and 141% and 104% and 174%, the “OT % in microperfusates of the amygdala” value ([3]; WT mice, 60 min) was 190% and 195% and 144% and 170% and 93% and 133% and the “OT % in microperfusates of the amygdala” value ([3]; WT mice, 90 min) was 204% and 156% and 78% and 216% and 359% and 124%. For the same molecule, the Tmax ([4]; plasma, sc 30 ng/mouse (approximately 1.1 μg/kg)) was no more than 10 min, the “time of return of blood oxytocin to baseline” value ([4]; sc 30 ng/mouse) was 1 to 2 h and the “OT % in CSF of the 3rd ventricle” value ([5]; Ager+/+ male mice) was 295% and 138% and 171% and 41% and 195% and 116% and 100% and 188% and 206%. For the same molecule, the “OT % in CSF of the 3rd ventricle” value ([5]; Ager-/- male mice) was 137% and 73% and 77% and 133% and 80% and 118% and 115% and 103%, the bioavailability [6] was 0.001% and the “share of peripherally applied oxytocin that reaches the CNS” value ([7]; 5 μg, 10 min after subcutaneous or intraperitoneal administration, rats) was “approximately 0.002%”. For the same molecule, the bioavailability ([7]; LC/MS after administration of 500 μg oxytocin in rats) was “approximately 2%” and the “share of oxytocin peptide accumulated on the BBB” value ([7]; intracarotid artery bolus of 125I- or 3H-labelled oxytocin, rats) was 1–2%.
